Laboratory results from patent US10101331B2, “Methods of evaluating patients using E-cadherin or vimentin” (AGIOS PHARMACEUTICALS, INC, priority 2012, dated 2018).

Tested on: NCI-H358 cell line
Test: TGFβ treatment of NCI-H358, western blot phenotype
Type: cell-based
Experimental: FIG. 4A depicts a western blot analysis of the non-small cell lung cancer cell line NCI-H358 for protein levels of E-cadherin, vimentin, PC ([…]), GLS (phosphate activated glutaminase), and actin (control).
In order to better understand the contribution of mesenchymal versus epithelial phenotype to GLS dependence, the NCI-H358 cell line was treated with TGFβ and the phenotype assayed.

TGFβ: TGFβ used to induce EMT in the NCI-H358 cell line
phenotype after TGFβ treatment (E-cadherin/vimentin expression): shift to a mesenchymal phenotype | increase in GAC protein levels in the mesenchymal variant (TGFβ induced EMT): 2 fold
